This note sets out measurements from patent publication US10221172B2, “Benzothiazole and benzisothiazole-substituted compounds as mGluR4 allosteric potentiators, compositions, and methods of treating neurological dysfunction” (Vanderbilt University, priority 2015, dated 2019).

The target in the assay is human mGluR4 (Homo sapiens (Human), UniProt Q14833). Briefly: mGluR4 potentiation assay, CHO cells transfected with human mGluR4, Ca2+-sensitive dye, EC20 agonist. The format is cell-based. The conditions noted are these: potentiation of mGluR4. How it is done: The disclosed compounds and compositions can be evaluated for their ability to act as a potentiator of metabotropic glutamate receptor activity, in particular mGluR4 activity, by any suitable known methodology known in the art. For example, Chinese Hamster Ovary (CHO) cells transfected with human mGluR4 or HEK cells co-transfected with rat mGluR4 and the G-protein regulated Inwardly Rectifying Potassium channel (GIRK) were plated in clear bottom assay plates for assay in a Hamamatsu FDSS Fluorometric Plate Reader. The cells were loaded with either a Ca2+-sensitive fluorescent dye or the thallium responsive dye and the plates were washed and placed into a suitable kinetic plate reader. For human mGluR4 assays, a fluorescence baseline was established for 3-5 seconds, the disclosed compounds were then added to the cells, and the response in cells was measured. Approximately two and a half minutes later, a concentration of mGluR4 orthosteric agonist (e.g. glutamate or L-AP4) eliciting approximately 20% (EC20) of the maximal agonist response was added to the cells, and the response was measured. Two minutes later, a concentration of mGluR4 agonist (e.g. glutamate or L-AP4) eliciting 80% (EC80) of the maximal agonist response was added to the cells, and the response was measured. For rat mGluR4/GIRK experiments, a baseline was established for approximately five seconds, disclosed compounds were added, and either an EC20 or EC80 concentration of agonist was added approximately two and one half minutes later. Potentiation of the agonist response of mGluR4 by the disclosed compounds was observed as an increase in response to the EC20 concentration of agonist in the presence of compound compared to the response to agonist in the absence of compound. Similarly, antagonism of the agonist response of mGluR4 by the disclosed compounds was observed as a decrease in response to the EC80 concentration of agonist in the presence of compound compared to the response to agonist in the absence of compound.
The above described assay operated in two modes. In the first mode, a range of concentrations of the disclosed compounds are added to cells, followed by a single fixed concentration of agonist. If the compound acts as a potentiatior, an EC50 value for potentiation and a maximum extent of potentiation by the compound at this concentration of agonist is determined by non-linear curve fitting. If the compound acts as a noncompetitive antagonist, an IC50 value is determined by non-linear curve fitting. In the second mode, several fixed concentrations of the disclosed compounds are added to various wells on a plate, followed by a range in concentrations of agonist for each concentration of disclosed compound. The EC50 values for the agonist at each concentration of compound are determined by non-linear curve fitting. A decrease in the EC50 value of the agonist with increasing concentrations of the sample compound (a leftward shift of the agonist concentration-response curve) is an indication of the degree of mGluR4 potentiation at a given concentration of the sample compound. A decrease in the maximal response of the agonist with increasing concentrations of the sample compounds, with or without a rightward shift in agonist potency, is an indication of the degree of noncompetitive antagonism at mGluR4. The second mode also indicates whether the sample compounds also affect the maximum response to mGluR4 to agonists.

Where [1] appears, read: main compound table, species not given.
Where [2] appears, read: summary list repeated at the end of the table, species not stated.

Chain of human mGluR4 (Q14833 33-912): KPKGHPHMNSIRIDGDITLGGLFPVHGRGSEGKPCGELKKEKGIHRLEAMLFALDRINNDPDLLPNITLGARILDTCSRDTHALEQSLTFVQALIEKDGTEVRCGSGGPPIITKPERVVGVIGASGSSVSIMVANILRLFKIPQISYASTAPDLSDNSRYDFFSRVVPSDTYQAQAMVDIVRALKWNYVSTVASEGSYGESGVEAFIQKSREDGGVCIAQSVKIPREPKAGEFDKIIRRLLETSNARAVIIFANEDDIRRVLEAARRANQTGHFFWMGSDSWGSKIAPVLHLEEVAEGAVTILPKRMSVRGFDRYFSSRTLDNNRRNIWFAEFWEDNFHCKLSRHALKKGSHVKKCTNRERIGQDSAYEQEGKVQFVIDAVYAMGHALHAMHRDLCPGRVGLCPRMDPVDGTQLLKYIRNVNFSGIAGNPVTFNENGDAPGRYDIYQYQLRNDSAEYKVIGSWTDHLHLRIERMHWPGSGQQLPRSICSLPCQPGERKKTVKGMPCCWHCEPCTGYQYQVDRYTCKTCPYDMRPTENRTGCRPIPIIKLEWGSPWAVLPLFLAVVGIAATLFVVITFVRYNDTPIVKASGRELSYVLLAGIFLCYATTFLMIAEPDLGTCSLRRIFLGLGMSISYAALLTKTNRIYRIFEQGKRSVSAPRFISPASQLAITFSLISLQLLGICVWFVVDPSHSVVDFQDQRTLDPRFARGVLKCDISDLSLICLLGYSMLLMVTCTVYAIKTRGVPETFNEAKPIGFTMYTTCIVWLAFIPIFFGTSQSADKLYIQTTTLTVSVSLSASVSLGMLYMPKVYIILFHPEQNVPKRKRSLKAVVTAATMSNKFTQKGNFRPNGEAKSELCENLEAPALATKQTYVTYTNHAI

The term EC50 denotes the concentration that produces a half-maximal response. Turning to `CCc1nsc2cc(Nc3n[nH]c4cccnc34)cnc12` [Example 41, 3-ethyl-N-(1H-pyrazolo[4,3-b]pyridin-3-yl)isothiazolo [4,5-b]pyridin-6-amine], the EC50 under setting [1] was 38.3 nM and the EC50 under setting [2] turned out to be 38.3 nM.
Take `CCc1nsc2cc(Nc3n[nH]c4ncccc34)cnc12` [Example 42, 3-ethyl-N-(1H-pyrazolo[3,4-b]pyridin-3-yl)isothiazolo [4,5-b]pyridin-6-amine]: the EC50 reads like this: under setting [1], 100 nM; under setting [2], 100 nM.
With `c1ccc(-c2nsc3cc(Nc4n[nH]c5cccnc45)ccc23)cc1` [Example 43, 3-phenyl-N-(1H-pyrazolo [4,3-b]pyridin-3-yl)benzo[d]isothiazol-6-amine], the EC50 runs as follows: under setting [1], 226 nM; under setting [2], 226 nM.
For `c1ccc(-c2nsc3cc(Nc4n[nH]c5ncccc45)ccc23)cc1` [Example 44, 3-phenyl-N-(1H-pyrazolo [3,4-b]pyridin-3-yl)benzo[d]isothiazol-6-amine], the EC50 under setting [1] was found to be 2040 nM and the EC50 under setting [2] is 2040 nM.
As to `c1cnc2c(Nc3ccc4c(-c5ccsc5)nsc4c3)n[nH]c2c1` [Example 45, N-(1H-pyrazolo[4,3-b]pyiridn-3-yl)-3-(thiophen-3-yl)benzo[d] isothiazol-6-amine], the EC50 turned out to be 216 nM under setting [1] and 216 nM under setting [2].
As to `c1cnc2c(Nc3ccc4c(-c5ccsc5)nsc4c3)n[nH]c2n1` [Example 46, N-(1H-pyrazolo[3,4-b]pyrazin-3-yl)-3-(thiophen-3-yl)benzo[d] isothiazol-6-amine], the EC50 runs as follows: under setting [1], 144 nM; under setting [2], 144 nM.
In the case of `OCc1nsc2cc(Nc3n[nH]c4cccnc34)cnc12` [Example 47, (6-((1H-pyrazolo[4,3-b]pyridin-3-yl)amino)isothiazolo[4,5-b]pyridin-3-yl)methanol], the EC50 came out at 1060 nM under setting [1] and 1060 nM under setting [2].
`Cc1nsc2cc(Nc3n[nH]c4ncccc34)cnc12` [Example 48, 3-methyl-N-(1H-pyrazolo [3,4-b]pyridin-3-yl)isothiazolo[4,5-b] pyridin-6-amine]: the EC50 runs as follows: under setting [1], 180 nM; under setting [2], 180 nM.
`c1cnc2[nH]nc(Nc3cnc4c(CN5CCCCC5)nsc4c3)c2c1` [Example 49, 3-(piperidin-1-ylmethyl)-N-(1H-pyrazolo[3,4-b]pyridin-3-yl)isothiazolo[4,5-b] pyridin-6-amine]: the EC50 under setting [1] was determined as 1560 nM and the EC50 under setting [2] was determined as 1560 nM.
As to `FC1(F)CCN(Cc2nsc3cc(Nc4n[nH]c5cccnc45)cnc23)CC1` [Example 50, 3-((4,4-difluoropiperidin-1-yl)methyl)-N-(1H-pyrazolo[4,3-b]pyridin-3-yl) isothiazolo[4,5-b]pyridin-6-amine], the EC50 runs as follows: under setting [1], 81.1 nM; under setting [2], 81.1 nM.
In the case of `FC1CCN(Cc2nsc3cc(Nc4n[nH]c5cccnc45)cnc23)CC1` [Example 51, 3-((4-fluoropiperidin-1-yl)methyl)-N-(1H-pyrazolo[4,3-b]pyridin-3-yl)isothiazolo[4,5-b] pyridin-6-amine], the EC50 is 247 nM under setting [1] and 247 nM under setting [2].
As to `CN(Cc1nsc2cc(Nc3n[nH]c4cccnc34)cnc12)C1CC(F)(F)C1` [Example 52, 3-(((3,3-difluoro-cyclobutyl) (methyl)amino)methyl)-N-(1H-pyrazolo[4,3-b]pyridin-3-yl)isothiazolo[4,5-b] pyridin-6-amine], the EC50 was 334 nM under setting [1] and 334 nM under setting [2].
`CN(Cc1nsc2cc(Nc3n[nH]c4ncccc34)cnc12)C1CC(F)(F)C1` [Example 53, 3-(((3,3-difluorocyclobutyl) (methyl)amino)methyl)-N-(1H-pyrazolo[3,4-b]pyridin-3-yl)isothiazolo[4,5-b]pyridin-6-amine]: the concentration giving a half-maximal response (EC50) under setting [1] was found to be 568 nM and the EC50 under setting [2] was determined as 568 nM.
As for `c1cnc2c(Nc3cnc4c(CN5CCOCC5)nsc4c3)n[nH]c2c1` [Example 54, 3-(morpholinomethyl)-N-(1H-pyrazolo[4,3-b]pyridin-3-yl)isothiazolo[4,5-b] pyridin-6-amine], the EC50 by setting is: under setting [1], 630 nM; under setting [2], 630 nM.
Turning to `c1cnc2[nH]nc(Nc3cnc4c(CN5CCOCC5)nsc4c3)c2c1` [Example 55, 3-(morpholinomethyl)-N-(1H-pyrazolo[3,4-b]pyridin-3-yl)isothiazolo[4,5-b] pyridin-6-amine], the EC50 is, setting by setting: under setting [1], 1030 nM; under setting [2], 1030 nM.
As for `CC(C)(C)C1CCN(Cc2nsc3cc(Nc4n[nH]c5cccnc45)cnc23)CC1` [Example 56, 3-((4-(tert-butyl)piperidin-1-yl)methyl)-N-(1H-pyrazolo[4,3-b]pyridin-3-yl)isothiazolo[4,5-b] pyridin-6-amine], the half-maximal effective concentration (EC50) runs as follows: under setting [1], 1390 nM; under setting [2], 1390 nM.
`CC(C)(C)C1CCN(Cc2nsc3cc(Nc4n[nH]c5ncccc45)cnc23)CC1` [Example 57, 3-((4-(tert-butyl)piperidin-1-yl)methyl)-N-(1H-pyrazolo[3,4-b]pyridin-3-yl)isothiazolo[4,5-b] pyridin-6-amine]: the EC50 reads like this: under setting [1], 4130 nM; under setting [2], 4130 nM.
In the case of `c1cnc2c(Nc3cnc4c(CN5CCCC5)nsc4c3)n[nH]c2c1` [Example 58, N-(1H-pyrazolo[4,3-b]pyridin-3-yl)-3-(pyrrolidin-1-ylmethyl) isothiazolo [4,5-b]pyridin-6-amine], the EC50 under setting [1] stood at 3740 nM and the EC50 under setting [2] amounted to 3740 nM.
As for `C[C@H]1CN(Cc2nsc3cc(Nc4n[nH]c5cccnc45)cnc23)CCO1` [Example 59, (S)-3-((2-methylmorpholino)methyl)-N-(1H-pyrazolo[4,3-b]pyridin-3-yl)isothiazolo[4,5-b] pyridin-6-amine], the EC50 is, setting by setting: under setting [1], 353 nM; under setting [2], 353 nM.
`CC1(C)CN(Cc2nsc3cc(Nc4n[nH]c5cccnc45)cnc23)CCO1` [Example 60]: the 50% effective concentration (EC50) by setting is: under setting [1], 147 nM; under setting [2], 147 nM.
Turning to `FC1(F)CCCN(Cc2nsc3cc(Nc4n[nH]c5cccnc45)cnc23)C1` [Example 61, 3-((3,3-difluoropiperidin-1-yl)methyl)-N-(1H-pyrazolo[4,3-b]pyridin-3-yl)isothiazolo[4,5-b] pyridin-6-amine], the concentration for a half-maximal effect (EC50) came to 55.9 nM under setting [1] and 55.9 nM under setting [2].
With `FC1(F)CCCN(Cc2nsc3cc(Nc4n[nH]c5ncccc45)cnc23)C1` [Example 62, 3-((3,3-difluoropiperidin-1-yl)methyl)-N-(1H-pyrazolo[3,4-b]pyridin-3-yl)isothiazolo[4,5-b] pyridin-6-amine], the 50% effective concentration (EC50) was 101 nM under setting [1] and 101 nM under setting [2].
For the compound `CC(=O)N1CCC(c2nsc3cc(Nc4n[nH]c5nccnc45)ccc23)CC1` [Example 63, 1-(4-(6-((1H-pyrazolo [3,4-b]pyrazin-3-yl)amino)benzo[d]isothiazol-3-yl)piperidin-1-yl)ethan-1-one], the EC50 by setting is: under setting [1], 154 nM; under setting [2], 154 nM.
As to `CC(=O)N1CCC(c2nsc3cc(Nc4n[nH]c5ncccc45)ccc23)CC1` [Example 64, 1-(4-(6-((1H-pyrazolo[3,4-b]pyridin-3-yl)amino)benzo[d]isothiazol-3-yl)piperidin-1-yl)ethan-1-one], the half-maximal effective concentration (EC50) reads like this: under setting [1], 409 nM; under setting [2], 409 nM.
Turning to `O=C(C1CC1)N1CCC(c2nsc3cc(Nc4n[nH]c5cccnc45)ccc23)CC1` [Example 71, (4-(6-((1H-pyrazolo [4,3-b]pyridin-3-yl)amino)benzo[d]isothiazol-3-yl)piperidin-1-yl) (cyclopropyl) methanone], the EC50 under setting [1] came out at 388 nM and the EC50 under setting [2] was 388 nM.
For `O=C(C1CCOCC1)N1CCC(c2nsc3cc(Nc4n[nH]c5cccnc45)ccc23)CC1` [Example 72, (4-(6-((1H-pyrazolo [4,3-b]pyridin-3-yl)amino)benzo[d]isothiazol-3-yl)piperidin-1-yl) (tetrahydro-2H-pyran-4-yl)methanone], the EC50 was determined as 1200 nM under setting [1] and 1200 nM under setting [2].
